From US9644037B2, “Antibodies that specifically bind ataxia telangiectasia-mutated and RAD3-related kinase phosphorylated at position 1989 and their use” (THE UNITED STATES OF AMERICA, AS REPRESENTED BY THE …, priority 2013, dated 2017) come the findings set out here.

Assay [1] has as its system phospho-ATR (pT1989). Kind of assay: Western blot of phospho-ATR (pT1989) in drug-treated cells. The format is cell-based, human. The procedure: Cell growth was monitored 2-3 weeks after fusion. Hybridoma supernatants were screened by standard colorimetric ELISA against BSA-conjugated peptides as described in section C. The screening process consisted of a Primary screen on 40 plates (using bleed 2 of E5571 at 1:100 dilution as a Positive control) clones (44) with O.D. greater than 0.5 were considered putatively positive and were further expanded to 24-well plate. Confirmatory screen was performed and 6 clones were confirmed positive against phospho-specific peptides (Table 4). Additional screening was performed by ELISA using the same assay as for bleed screening (FIG. 5). Western blotting was done on selected clones #7, 27 and 35 for subcloning (FIG. 6). DLD-1 cells and DLD-1 Seckel cells with and without gemcitabine treatment (100 nM for 4 h) were lysed with cell extraction buffer (Invitrogen, catalog # FNN0011). Lysates were run on NUPAGE® NOVEX® 3-8% gels (Invitrogen, catalog # EA0378BOX) and transferred to nitrocellulose membranes (Invitrogen catalog # IB3010-01) using the IBLOT® apparatus from Invitrogen. Blots were blocked with Licor ODYSSEY® blocking buffer (LiCor, catalog #927-40010) and incubated overnight with hybridoma supernatants (1:30). Blots were then washed with PBS-T (0.05% TWEEN®) and incubated with Licor goat anti-rabbit IR-680 antibody for 1 h at room temperature. Blots were then washed with phosphate-buffered saline with 0.05% TWEEN®-20 (PBS-T) and scanned at 700 nm on Licor ODYSSEY® scanner.
Details for lysate preparation and Western blotting are given in Example I, section E. The antibody detected a single band at about 250 kDa consistent with the predicted molecular weight (MW) for ATR. The antibody also detected an increase in phospho-ATR (pT1989) upon gemcitabine (SIGMA) treatment which is known to increase ATR activity (Mol. Pharmacol. (2005), 68, 1636-1644). Finally, an isogenic pair of DLD-1 cells was used.
Cells were treated for 4 hours with either vehicle (DMSO, 0.01%), 150 nM Gemcitabine (Sigma), 1 uM ATR inhibitor VE-821 or combination of drugs. The antibody detected a single band at about 250 kDa consistent with the predicted MW for ATR. The antibody also detected an increase in phospho-ATR (pT1989) upon Gemcitabine treatment, which is known to increase ATR activity (Molecular Pharmacology (2005) 68, 1636-1644). […] Lysates were prepared in buffer as follows: 0.94 ml RIPA buffer, 40 μl Protease Inhibitor Cocktail (25× stock, Roche Cat#11697498001), 10 μl Phosphatase Inhibitor (Roche Cat#04906845001) and 10 μl PMSF (Sigma cat#93482). Lysates were sonicated prior to use. Lysates were run on 3-8% Tris-Acetate gels from NOVEX® (Invitrogen, Cat# EA0378BOX) and transferred to nitrocellulose membranes using the IBLOT® transfer apparatus, program setting P3, 20V, 13 min. Blots were blocked with Licor ODYSSEY® blocking buffer and incubated overnight with Clone 7 hybridoma supernatant (1:30). B lots were then washed with PBS-T (0.05% Tween) and incubated with Licor goat anti-rabbit IR-680 antibody for 1 h at room temperature. […]
For these studies, DLD-1 parental and DLD-1 Seckel (Horizon) cells were treated with gemcitabine for 4 hours. Clone 7A7 detected ATR in the parental DLD-1 cell lysate by Western blotting and detects an increase in pT1989-ATR with gemcitabine treatment as expected. In contrast, the level of pT-1989 detected by clone 7A7 was much lower in the DLD-1 Seckel cells which have suppressed ATR expression.
Background: Immunoblotting shows a protein as a band on a membrane.

Assay [2] deals with pT1989-ATR. Kind of assay: Immunoblot of ATR-Chk1 response to Top1 inhibitors with or without VE-821: ATR. It counts as cell-based. The settings on record: for phosphorylation of ATR (threonine 1989): Top1 inhibitor treatment, 0, 4, 8, 18 h after removal. The procedure: (§1) For these studies, auto-phosphorylation of ATR on threonine 1989, a DNA damage activation site (Nam et al., J Biol Chem 2011; 286(33):28707-14; Liu et al., Molecular cell 2011; 43(2):192-202), was determined, as well as Chk1 phosphorylation on serine 345, which is mediated by ATR. Histone H2AX phosphorylation was also determined on serine 139 (γH2AX), a validated pharmacodynamic biomarker for DNA damage and apoptosis (Bonner et al., Nat Rev Cancer 2008; 8(12):957-67; Kinders et al., Clin Cancer Res 2010; 16(22):5447-57; Solier et al., Mol Cell Biol 2009; 29(1):68-82).
(§2) Briefly, cell lysates were electrophoresed on 4-20% Tris-glycine or 3-8% Tris-acetate polyacrylamide gels, and transferred onto nitrocellulose membranes. Antibodies against GAPDH, ATR and pS345-Chk1 were obtained from Cell Signaling Technologies, γH2AX and pT68-Chk2 from Abcam and Top1 from BD Biosciences. The antibody against pT1989-ATR is disclosed above. After incubation with secondary antibody, signals were detected by enhanced chemiluminescence (Pierce).

Assay [3] deals with pS345-Chk1. The assay is described as follows: Immunoblot of ATR-Chk1 response to Top1 inhibitors with or without VE-821: Chk1. The format is cell-based. The note with it: for phosphorylation of Chk1 (serine 345): Top1 inhibitor treatment. The procedure: as §1, §2
Assay [4] relates to pT68-Chk2. Kind of assay: Immunoblot of ATR-Chk1 response to Top1 inhibitors with or without VE-821: Chk2. The format is cell-based. The note with it: for phosphorylation of Chk2 (threonine 68): Top1 inhibitor treatment. The procedure:
Briefly, cell lysates were electrophoresed on 4-20% Tris-glycine or 3-8% Tris-acetate polyacrylamide gels, and transferred onto nitrocellulose membranes. Antibodies against GAPDH, ATR and […]-Chk1 were obtained from Cell Signaling Technologies, γH2AX and […]-Chk2 from Abcam and Top1 from BD Biosciences. The antibody against […]-ATR is disclosed above. After incubation with secondary antibody, signals were detected by enhanced chemiluminescence (Pierce).

The test system of assay [5] is γH2AX. Kind of assay: Immunoblot of ATR-Chk1 response to Top1 inhibitors with or without VE-821: γH2AX. The format is cell-based. The settings on record: for phosphorylation of H2AX (γH2AX): Top1 inhibitor treatment. The procedure: as §1, §2
The subject of assay [6] is ATR phosphorylation at pT1989. Kind of assay: ATR-pT1989 IFA on FFPE pellets of drug-treated cells. It counts as cell-based, human. The procedure:
Formalin fixed paraffin embedded (FFPE) pellets were generated using cells expressing WT ATR (HT29, DLD-1 Parental) or mutated ATR (DLD-1 Seckel (Horizon)), with and without gemcitabine (SIGMA) treatment to induce ATR phosphorylation at pT1989 (Mol. Pharmacol. 2005, 68, 1636-1644). Cells were harvested by trypsinization, transferred into a sterile 50 ml conical centrifuge tubes with media containing 10% serum and pelleted at 1000×g for 5 minutes. Medium was replaced with fresh serum containing medium and centrifuged again at 1000×g, 5 minutes. All but 1 ml (approximately) of medium was removed and the pellet was re-suspended by flicking the tube. Suspended cells were transferred using a 2 ml pipette into a clean 1.5 ml conical Eppendorf tube. Cells were pelleted for 30 seconds at 8,000 rpm in an Eppendorf micro centrifuge. The supernatant was discarded leaving approximately 100-200 ul behind. The cell pellet was loosened by gently flicking the tube and Thrombin stock (8 ul of 1 unit/ul water, Sigma #T-7009) was added. The cells were mixed briefly by gently flicking the tube then held on ice for 2-5 minutes. Fibrinogen stock (5 ul of at 10 mg/ml water, Sigma #F-3879) was added, and the tube was incubated for 2-5 minutes at room temperature. Clotted cells were pelleted by a brief centrifuge for 20 seconds at 10K. […]

Assay [7] deals with ATR-pT1989 foci in A2780 xenografts. The assay is described as follows: pATR T1989 immunofluorescence assay in A2780 xenografts. It counts as in vivo, mice. The settings on record: 1.2 or 6.0 mg/kg intraperitoneally; 4, 7 and 24 hours; dose and time dependent. The procedure:
In vivo studies were performed. A2780 xenografts were evaluated in mice treated with 1.2 mg/kg cisplatin or 6.0 mg/kg cisplatin for 4, 7 and 24 hours. […] The following methods were used in these studies:
Xenograft Samples and In Vivo Quantitation: Athymic nu/nu mice were implanted with A2780 cells as previously described (Kinders et al., Clin Cancer Res 2010:16(22):5447-57). Xenograft quadrants were collected and flash frozen from mice following exposure to vehicle (0.9% saline) or various doses (1.2, 6.0 mg/kg) of cisplatin administered intraperitoneally. The samples were fixed in neutral-buffered formalin and paraffin-embedded as previously described (Kinders et al., Clin Cancer Res 2010; 16(22):5447-57). Animal care was provided in accordance with the procedures outlined in the “Guide for Care and Use of Laboratory Animals” (National Research Council; 1996; National Academy Press; Washington, D.C.), and all studies were conducted under an approved Animal Care and Use Committee protocol. […]
Quantitative Marker Analysis: The DEFINIENS TISSUE STUDIO® (Version 2.0.3; Build 2057) software program was used for analysis of foci count/nucleus. For the analysis, fields were scored first for the number of nuclei and then individual counts of the number of foci count/per nucleus were performed. […]

The mark [8] stands for this setting: VE-821 with Top1 inhibitor (CPT or LMP-400).

Consider `CS(=O)(=O)c1ccc(-c2cnc(N)c(C(=O)Nc3ccccc3)n2)cc1` [VE-821], for which the “phospho-ATR (pT1989) level by Western blot compared to gemcitabine alone” value in assay [1] (1 uM VE-821 combined with 150 nM gemcitabine, 4 hours, HT-29 and LoVo) is reported as “reduced”. Moreover, the “phospho-ATR (pT1989) level by Western blot compared to vehicle” value in assay [1] (1 uM alone, 4 hours, HT-29 and LoVo) is on record as “did not affect”. Besides, the “phosphorylation of ATR” value in assay [2] (setting [8]) is on record as “inhibited the phosphorylation”. Further, the “phosphorylation of Chk1” value in assay [3] (setting [8]) is “inhibited the phosphorylation”. In addition, the Chk2 phosphorylation result in assay [4] (setting [8]) is given as “without reducing Chk2 phosphorylation”. Further, in assay [5] (setting [8]), the “γH2AX induction over time” value is given as “strongly induced”.
`Nc1ccn([C@@H]2O[C@H](CO)[C@@H](O)C2(F)F)c(=O)n1` [gemcitabine]: the “phospho-ATR (pT1989) level by Western blot” value is on record as “increase” in assay [1] (150 nM, 4 hours, HT-29 and LoVo); “increase” in assay [1] (gemcitabine treatment, HT-29, LoVo and DLD-1 lysates). Also, in assay [1] (4 hours, parental DLD-1 cells), the “pT1989-ATR level by Western blot” value was “increase”. Besides, the “signal intensity for pT1989 staining compared to untreated cells” value in assay [6] (FFPE HT29, DLD-1 cells) is “higher signal intensity”; in assay [6] (HT29 cells, 150 nM, 4 hrs or 24 hrs), “higher signal intensity”.
As for `COc1cc2c3c(n(CCCN4CCOCC4)c(=O)c2cc1OC)-c1cc2c(cc1C3=O)OCO2` [LMP-400], in assay [2], the “effects on checkpoint phosphorylation relative to CPT” value is listed as “more pronounced effects than CPT”; the “phosphorylation of ATR (threonine 1989)” value is “delayed and best detectable after drug removal”. Further, the “phosphorylation of Chk1 (serine 345)” value in assay [3] is “quickly induced the rapid phosphorylation”. The “phosphorylation of Chk2 (threonine 68)” value in assay [4] is “quickly induced the rapid phosphorylation”. The “phosphorylation of H2AX (γH2AX)” value in assay [5] is listed as “quickly induced the rapid phosphorylation”.
With `N.N.[Cl][Pt][Cl]` [cisplatin], the “ATR foci in treated samples compared to vehicle” value in assay [7] is recorded as “increase in ATR foci”.
Consider `CC[C@@]1(O)C(=O)OCc2c1cc1n(c2=O)Cc2cc3ccccc3nc2-1` [CPT], for which the “phosphorylation of ATR (threonine 1989)” value in assay [2] was “delayed and best detectable after drug removal”. Besides, in assay [3], the “phosphorylation of Chk1 (serine 345)” value is “quickly induced the rapid phosphorylation”. For the same compound, the “phosphorylation of Chk2 (threonine 68)” value in assay [4] was “quickly induced the rapid phosphorylation”. For the same compound, in assay [5], the “phosphorylation of H2AX (γH2AX)” value is recorded as “quickly induced the rapid phosphorylation”.
